# Assay results from ChEMBL document CHEMBL1697692, “Developing structure-activity relationships for the prediction of hepatotoxicity” (Chem Res Toxicol, 2010).
# Test system: Hepatotoxicity
# Test: Literature-mined public compounds from Greene et al multi-species hepatotoxicity modelling dataset
molecule,measurement,value
CN(Cc1cnc2nc(N)nc(N)c2n1)c1ccc(C(=O)N[C@@H](CCC(=O)O)C(=O)O)cc1 [METHOTREXATE],Hepatotoxicity,HH: Evidence of human hepatotoxicity
Cc1c(C)c2c(c(C)c1O)CCC(C)(COc1ccc(CC3SC(=O)NC3=O)cc1)O2 (centres undefined) [TROGLITAZONE],Hepatotoxicity,HH: Evidence of human hepatotoxicity
COc1cc(C)c(/C=C/C(C)=C/C=C/C(C)=C/C(=O)O)c(C)c1C [ACITRETIN],Hepatotoxicity,HH: Evidence of human hepatotoxicity
CC(=O)CC(c1ccc([N+](=O)[O-])cc1)c1c(O)c2ccccc2oc1=O (centres undefined) [ACENOCOUMAROL],Hepatotoxicity,HH: Evidence of human hepatotoxicity
CCCCN1CCCCC1C(=O)Nc1c(C)cccc1C (centres undefined) [BUPIVACAINE],Hepatotoxicity,NE: No evidence of hepatotoxicity in any species
CCN(CC)C(=O)/C(C#N)=C/c1cc(O)c(O)c([N+](=O)[O-])c1 [ENTACAPONE],Hepatotoxicity,WE: Weak evidence (<10 case reports) of human hepatotoxicity
CCCN(CCC)S(=O)(=O)c1ccc(C(=O)O)cc1 [PROBENECID],Hepatotoxicity,WE: Weak evidence (<10 case reports) of human hepatotoxicity
O=C(OCC(O)CO)c1ccccc1Nc1ccnc2cc(Cl)ccc12 (centres undefined) [GLAFENINE],Hepatotoxicity,HH: Evidence of human hepatotoxicity
CC(C(=O)[O-])c1cccc(Oc2ccccc2)c1.[Na+] (centres undefined) [FENOPROFEN SODIUM],Hepatotoxicity,HH: Evidence of human hepatotoxicity
CN[C@@H]1[C@H](O)[C@H](NC)[C@H]2O[C@@]3(O)C(=O)C[C@@H](C)O[C@H]3O[C@@H]2[C@H]1O.Cl,Hepatotoxicity,HH: Evidence of human hepatotoxicity
COc1ccc(CCN2CCC(Nc3nc4ccccc4n3Cc3ccc(F)cc3)CC2)cc1 [ASTEMIZOLE],Hepatotoxicity,NE: No evidence of hepatotoxicity in any species
CC1=C(/C=C/C(C)=C/C=C/C(C)=C/C(=O)O)C(C)(C)CCC1 [TRETINOIN],Hepatotoxicity,HH: Evidence of human hepatotoxicity
Nc1ncn([C@@H]2O[C@H](CO)[C@@H](O)[C@H]2O)c(=O)n1 [AZACITIDINE],Hepatotoxicity,HH: Evidence of human hepatotoxicity
CN1CCN2c3ccccc3Cc3ccccc3C2C1 (centres undefined) [MIANSERIN],Hepatotoxicity,HH: Evidence of human hepatotoxicity
CARBOPLATIN,Hepatotoxicity,HH: Evidence of human hepatotoxicity
NCCCC[C@H](N[C@@H](CCc1ccccc1)C(=O)O)C(=O)N1CCC[C@H]1C(=O)O [LISINOPRIL ANHYDROUS],Hepatotoxicity,HH: Evidence of human hepatotoxicity
CC[C@@]1(O)C[C@H](O[C@H]2C[C@H](N(C)C)[C@H](O[C@H]3C[C@H](O)[C@H](O[C@H]4CCC(=O)[C@H](C)O4)[C@H](C)O3)[C@H](C)O2)c2c(cc3c(c2O)C(=O)c2c(O)cccc2C3=O)[C@H]1C(=O)OC.Cl [ACLARUBICIN HYDROCHLORIDE],Hepatotoxicity,WE: Weak evidence (<10 case reports) of human hepatotoxicity
C[C@]12CC[C@@H]3c4ccc(O)cc4CC[C@H]3[C@@H]1CCC2=O [ESTRONE],Hepatotoxicity,HH: Evidence of human hepatotoxicity
Nc1cc(Cl)c(O)c(Cl)c1.Nc1ccc(O)cc1,Hepatotoxicity,AH: Evidence for animal hepatotoxicity but not tested in humans
COc1ccc2cc([C@H](C)C(=O)O)ccc2c1 [NAPROXEN],Hepatotoxicity,WE: Weak evidence (<10 case reports) of human hepatotoxicity
Cc1ccc2cc3c(ccc4ccccc43)c3c2c1CC3 [3-METHYLCHOLANTHRENE],Hepatotoxicity,HH: Evidence of human hepatotoxicity
CCOC(=O)C1(c2ccccc2)CCN(CCc2ccc(N)cc2)CC1.Cl [ANILERIDINE HYDROCHLORIDE],Hepatotoxicity,NE: No evidence of hepatotoxicity in any species
Br.COc1ccc2c(c1)[C@]13CCCC[C@@H]1[C@H](C2)N(C)CC3.O [DEXTROMETHORPHAN HYDROBROMIDE],Hepatotoxicity,NE: No evidence of hepatotoxicity in any species
CN1CCC(=C2c3ccccc3CC(=O)c3sccc32)CC1 [KETOTIFEN],Hepatotoxicity,NE: No evidence of hepatotoxicity in any species
CN1CCN(C2=Nc3cc(Cl)ccc3Nc3ccccc32)CC1 [CLOZAPINE],Hepatotoxicity,HH: Evidence of human hepatotoxicity
"CCCC(C)(F)F [2,2-DIFLUOROPENTANE]",Hepatotoxicity,AH: Evidence for animal hepatotoxicity but not tested in humans
CCN(CC)Cc1cc(Nc2ccnc3cc(Cl)ccc23)ccc1O.Cl.Cl.Cl,Hepatotoxicity,HH: Evidence of human hepatotoxicity
"LACTOSE, ANHYDROUS",Hepatotoxicity,NE: No evidence of hepatotoxicity in any species
CC(C)(Sc1cc(C(C)(C)C)c(O)c(C(C)(C)C)c1)Sc1cc(C(C)(C)C)c(O)c(C(C)(C)C)c1 [PROBUCOL],Hepatotoxicity,NE: No evidence of hepatotoxicity in any species
CCOC(=O)Nc1ccc2c(c1)N(C(=O)CCN1CCOCC1)c1ccccc1S2.Cl [MORICIZINE HYDROCHLORIDE],Hepatotoxicity,HH: Evidence of human hepatotoxicity
C#CC1(O)CC[C@H]2[C@@H]3CCC4=CC(=O)CC[C@@H]4[C@H]3CC[C@@]21CC (some centres undefined) [NORGESTREL],Hepatotoxicity,HH: Evidence of human hepatotoxicity
Nc1cc(-c2ccncc2)c[nH]c1=O [INAMRINONE],Hepatotoxicity,HH: Evidence of human hepatotoxicity
Nc1nc(=O)c2c([nH]1)NCC(CNc1ccc(C(=O)N[C@@H](CCC(=O)[O-])C(=O)[O-])cc1)N2C=O.[Ca+2] (some centres undefined) [LEUCOVORIN CALCIUM],Hepatotoxicity,NE: No evidence of hepatotoxicity in any species
CC(=O)Nc1nnc(S(N)(=O)=O)s1 [ACETAZOLAMIDE],Hepatotoxicity,HH: Evidence of human hepatotoxicity
O=c1[nH]c(=O)n([C@H]2C[C@H](O)[C@@H](CO)O2)cc1F [FLOXURIDINE],Hepatotoxicity,HH: Evidence of human hepatotoxicity
CC(=O)OCC1=C(C(=O)[O-])N2C(=O)[C@@H](NC(=O)CSc3ccncc3)[C@H]2SC1.[Na+] [CEPHAPIRIN SODIUM],Hepatotoxicity,NE: No evidence of hepatotoxicity in any species
N[C@H](C(=O)O)[C@@H]1CC(Cl)=NO1 [ACIVICIN],Hepatotoxicity,NE: No evidence of hepatotoxicity in any species
CC[C@]1(O)C[C@H]2CN(CCc3c([nH]c4ccccc34)[C@@](C(=O)OC)(c3cc4c(cc3OC)N(C=O)[C@H]3[C@@](O)(C(=O)OC)[C@H](OC(C)=O)[C@]5(CC)C=CCN6CC[C@]43[C@@H]65)C2)C1.O=S(=O)(O)O [VINCRISTINE SULFATE],Hepatotoxicity,HH: Evidence of human hepatotoxicity
Cl.Cl.OCCN1CCN(CC/C=C2/c3ccccc3Sc3ccc(C(F)(F)F)cc32)CC1,Hepatotoxicity,NE: No evidence of hepatotoxicity in any species
NS(=O)(=O)c1cc2c(cc1Cl)NCNS2(=O)=O [HYDROCHLOROTHIAZIDE],Hepatotoxicity,HH: Evidence of human hepatotoxicity
Nc1ncnc2c1ncn2[C@@H]1O[C@H](CO)[C@@H](O)[C@H]1O [ADENOSINE],Hepatotoxicity,NE: No evidence of hepatotoxicity in any species
CO[C@H]1/C=C/O[C@@]2(C)Oc3c(C)c(O)c4c(O)c(c(/C=N/N5CCN(C)CC5)c(O)c4c3C2=O)NC(=O)/C(C)=C\C=C\[C@H](C)[C@H](O)[C@@H](C)[C@@H](O)[C@@H](C)[C@H](OC(C)=O)[C@@H]1C [RIFAMPIN],Hepatotoxicity,WE: Weak evidence (<10 case reports) of human hepatotoxicity
CO[C@@H]1[C@@H](OC(N)=O)[C@@H](O)[C@H](Oc2ccc3c(O)c(NC(=O)c4ccc(O)c(CC=C(C)C)c4)c(=O)oc3c2C)OC1(C)C [NOVOBIOCIN],Hepatotoxicity,HH: Evidence of human hepatotoxicity
COC1=CC(=O)C[C@@H](C)[C@]12Oc1c(Cl)c(OC)cc(OC)c1C2=O [GRISEOFULVIN],Hepatotoxicity,HH: Evidence of human hepatotoxicity
